Here are results for three compounds from paper PMC11232109, “Synthesis, anticancer evaluation of novel hybrid pyrazole-based chalcones, molecular docking, DNA fragmentation, and gene expression: in vitro studies” (RSC Advances, 2024).

Common to all, as to type: cell-based, human
For test [1], the system named is Bcl-2. The test is described as follows: qPCR gene expression of Bcl-2 in MCF7 cells. The conditions noted are these: treatment with IC50 conc., negative control = 1. The protocol:
(§1) Total RNA was isolated from breast and pancreatic cancer cell lines according to the manufacturer's protocol using RNeasy Mini Kit (Qiagen) supplemented with the DNaseI (Qiagen) digestion step. To digest DNA residues, the isolated total RNA was treated with one unit of RQ1 RNAse-free DNAse (Invitrogen), re-suspended in DEPC-treated water, and quantified using a spectrophotometer at 260 nm. The purity of total RNA was assessed by the 260/280 nm ratio, which was between 1.8 and 2.1. Moreover, RNA integrity was assured by ethidium bromide-stain analysis of 28S and 18S bands by formaldehyde-containing agarose gel electrophoresis. Complete poly(A)+ RNA isolated from breast and pancreatic cell lines was reverse-transcribed into cDNA in a total volume of 20 μl using the RevertAidTM First Strand cDNA Synthesis Kit (Fermentas). […] Subsequently, the reaction tubes containing RT preparations were flash-cooled in an ice chamber until used for cDNA amplification using a quantitative real-time polymerase chain reaction (qRT-PCR).
(§2) Determination of the breast and pancreatic cell line cDNA copy number was carried out using the StepOne™ Real-Time PCR system from Applied Biosystems (Thermo Fisher Scientific). […] The relative quantification of the target to the reference was performed using the 2^−ΔΔCT method (Yang et al., 2017).[51]
On the technique in general: Quantitative PCR measures a nucleic acid by following its amplification.

Test [2] deals with CDK4. The test is described as follows: qPCR gene expression of CDK4 in MCF7 cells. The note with it: treatment with IC50 conc., negative control = 1. The protocol:
as §1, §2

Test [3] relates to P21. The test is described as follows: qPCR gene expression of P21 in MCF7 cells. The note with it: treatment with IC50 conc., negative control = 1. On the procedure: as §1, §2
Test [4] concerns MCF7 cell lines. The test is described as follows: DNA fragmentation assay, MCF7. The note with it: for DNA fragmentation, Inhibition (%): MCF7; for DNA fragmentation (%) M ± SEM: MCF7, 24 hours of exposure, −ve control 8.6 ± 0.36; for DNA fragmentation, Change: MCF7, change versus −ve control. On the procedure: (§3) The DNA fragmentation assay in breast and pancreatic cancer cell lines was performed in accordance with the method of Helmy et al., 2022 (ref. [15]) with some modifications. Briefly, after 24 hours of exposure of breast and pancreatic cancer cell lines to the tested chalcone compounds in different Petri dishes (60 × 15 mm, Greiner), the cells were trypsinized, suspended, homogenized in 1 ml of medium, and centrifuged (10 min at 800 rpm). Low-molecular-weight genomic DNA was extracted as described in Yawata et al., 1998.[52] Approximately 1 × 10^6 cells were plated and treated with the tested substances in various treatments. All the cells (including floating cells) were harvested by trypsinization and washed with Dulbecco's phosphate-buffered saline. Cells were lysed with the lysis buffer containing 10 mM Tris (pH 7.4), 150 mM NaCl, 5 mM EDTA, and 0.5% Triton X-100 for 30 minutes on ice. Lysates were vortexed and cleared by centrifugation at 10 000 g for 20 min. Fragmented DNA in the supernatant was extracted with an equal volume of a neutral phenol/chloroform/isoamyl alcohol mixture (25 : 24 : 1) and analyzed electrophoretically on 2% agarose gels containing 0.1 μg ml^−1 ethidium bromide.

In test [5] the test system is MCF-7. The test is described as follows: Comet assay (DNA damage), breast cancer cell line. The note with it: for DNA damaged cells% (mean ± SEM): MCF-7, comet assay, −ve 9.63 ± 0.64; for No. of cells, Comets: MCF-7, of 405 cells analyzed; for No. of cells, Class 0 / No. of cells, Class 1 / No. of cells, Class 2 / No. of cells, Class 3: MCF-7, of 405 cells; for No. of cells, Class 0: class 0 = no tail; for No. of cells, Class 1: class 1 = tail length < diameter of nucleus; for No. of cells, Class 2: class 2 = tail length between 1× and 2× the diameter of nucleus; for No. of cells, Class 3: class 3 = tail length > 2× the diameter of nucleus. On the procedure: (§4) Olive et al. (1990) used pancreatic and breast cancer cell lines to measure the DNA damage using the comet test.[53] Approximately 1.5 × 10^4 cells were imbedded in 0.75% low-gelling-temperature agarose after trypsin treatment to generate a single-cell suspension, which was then quickly pipetted onto a pre-coated microscope slide. Cell samples were lysed in 0.5% SDS, 30 mM EDTA, pH 8.0, for four hours at 50 °C. Samples were electrophoresed for 25 minutes at 0.6 V cm^−1 after being rinsed overnight at room temperature in Tris/borate/EDTA buffer, pH 8.0. Propidium iodide was then added for staining. A fluorescent microscope equipped with a CCD camera was used to observe the slides, and 150 unique comet photos from each sample were examined to determine the tail moment, DNA content, and percentage of DNA in the tail. To find the fraction of cells with DNA damage that resemble comets in each sample, around 100 cells were analyzed. Based on perceived comet tail length migration and relative proportion of DNA in the nucleus, the non-overlapping cells were randomly chosen and visually assigned a score on an arbitrary scale of 0–3. Class 0 = no detectable DNA damage and no tail; class 1 = tail with a length less than the nucleus diameter; class 2 = tail with length between 1× and 2× the nuclear diameter; and class 3 = tail longer than 2× the nucleus diameter.[54]

The test system of test [6] is P53. The test is described as follows: qPCR gene expression of P53 in PACA2 cells. The conditions noted are these: treatment with IC50 conc., negative control = 1. On the procedure: as §1, §2
In test [7] the test system is BID. The test is described as follows: qPCR gene expression of BID in PACA2 cells. The note with it: treatment with IC50 conc., negative control = 1. On the procedure:
as §1, §2

For test [8], the system named is PACA2 cell lines. The test is described as follows: DNA fragmentation assay, PACA2. The note with it: for DNA fragmentation, Inhibition (%): PACA2; for DNA fragmentation (%) M ± SEM: PACA2, 24 hours of exposure, −ve control 8.3 ± 0.31; for DNA fragmentation, Change: PACA2, change versus −ve control. On the procedure:
as §3

In test [9] the test system is Paca2. The test is described as follows: Comet assay (DNA damage), pancreatic cancer cell line. The conditions noted are these: for DNA damaged cells% (mean ± SEM): Paca2, comet assay, −ve 10.12 ± 0.85; for No. of cells, Class 0 / No. of cells, Class 1 / No. of cells, Class 2 / No. of cells, Class 3: Paca2, of 405 cells; for No. of cells, Class 0: class 0 = no tail; for No. of cells, Class 1: class 1 = tail length < diameter of nucleus; for No. of cells, Class 2: class 2 = tail length between 1× and 2× the diameter of nucleus; for No. of cells, Class 3: class 3 = tail length > 2× the diameter of nucleus. The protocol: as §4

“And” between values parts separate entries of the source, which are not always exact repeats. Equal values may be shown once. Marks after values point to notes of the source that are not given here.

With `Cc1nn(-c2ccccc2)c(C=CC(=O)c2c(-c3cccs3)nn(-c3ccc([N+](=O)[O-])cc3)c2C)c1Cl` [Compound 7d, 3-(4-Chloro-3-methyl-1-phenyl-1H-pyrazol-5-yl)-1-(5-methyl-1-(4-nitrophenyl)-3-(thiophen-2-yl)-1H-pyrazol-4-yl)prop-2-en-1-one], the “Gene expression Bcl-2” value in [1] is 0.64 fold change/GAPDH. Moreover, in test [2], the “Gene expression CDK4” value is 0.43 fold change/GAPDH. Also, the “Gene expression P21” value in [3] is recorded as 3.95 fold change/GAPDH. In addition, in [4], the “DNA fragmentation, Inhibition (%)” value turned out to be 20.48%; the “DNA fragmentation (%) M ± SEM” value was 21.8 ± 0.94% and 21.8 ± 0.94^a %; the “DNA fragmentation, Change” value worked out at 13.2. In test [5], the “DNA damaged cells% (mean ± SEM)” value is given as 25.93 ± 1.08^a %; the “No. of cells, Comets” value is reported as 105; the “No. of cells, Class 0” value was 300; the “No. of cells, Class 1” value was found to be 30. Besides, in [5], the “No. of cells, Class 2” value is 41 and the “No. of cells, Class 3” value is reported as 34.

In the case of `Cc1c(C(=O)C=Cc2nn(-c3ccccc3)cc2-c2ccc([N+](=O)[O-])cc2)c(-c2cccs2)nn1-c1ccc([N+](=O)[O-])cc1` [Compound 9e, 1-(5-Methyl-1-(4-nitrophenyl)-3-(thiophen-2-yl)-1H-pyrazol-4-yl)-3-(4-(4-nitrophenyl)-1-phenyl-1H-pyrazol-3-yl)prop-2-en-1-one], the “Gene expression P53” value in test [6] came to 3.89 fold change/GAPDH. For the same compound, the “Gene expression BID” value in test [7] came to 0.48 fold change/GAPDH. Further, in [8], the “DNA fragmentation, Inhibition (%)” value was 24.45%; the “DNA fragmentation (%) M ± SEM” value was 24.2 ± 0.57% and 24.2 ± 0.57^a %; the “DNA fragmentation, Change” value was 15.9. Also, in test [9], the “DNA damaged cells% (mean ± SEM)” value was 28.40 ± 1.04% and 28.40 ± 1.04^a %; the “No. of cells, Class 0” value worked out at 290; the “No. of cells, Class 1” value was determined as 35; the “No. of cells, Class 2” value is 37. The “No. of cells, Class 3” value in test [9] was 43. The “No. of cells, Comets” value in test [9] (Paca2, of 405 cells analyzed) was 115.

For the compound `COc1cccc2c1C(=O)c1c(O)c3c(c(O)c1C2=O)C[C@@](O)(C(=O)CO)C[C@@H]3O[C@H]1C[C@H](N)[C@H](O)[C@H](C)O1` [Doxorubicin, reference compound], the “Gene expression Bcl-2” value in [1] was found to be 0.56 fold change/GAPDH. Further, the “Gene expression CDK4” value in test [2] is listed as 0.39 fold change/GAPDH. Moreover, in test [3], the “Gene expression P21” value was determined as 4.18 fold change/GAPDH. Further, the “Gene expression P53” value in test [6] is 2.21 fold change/GAPDH. Also, the “Gene expression BID” value in [7] was found to be 0.69 fold change/GAPDH. For the same compound, in [4], the “DNA fragmentation, Inhibition (%)” value worked out at 23.67%; the “DNA fragmentation (%) M ± SEM” value is recorded as 25.2 ± 0.65%; the “DNA fragmentation, Change” value is 16.6. Moreover, the “DNA fragmentation (%) M ± SEM” value in test [4] (listed as MCF7 +ve control) is 25.2 ± 0.65^a %. For the same compound, in [8], the “DNA fragmentation, Inhibition (%)” value is 17.94%; the “DNA fragmentation (%) M ± SEM” value is listed as 21.5 ± 0.46%; the “DNA fragmentation, Change” value is reported as 13.2. In addition, the “DNA fragmentation (%) M ± SEM” value in test [8] (listed as PACA (+ve) control) is 21.5 ± 0.46^a %. Moreover, the “DNA damaged cells% (mean ± SEM)” value in [5] (listed as Dox) is 21.98 ± 0.91^b %. Moreover, in test [5], the “No. of cells, Comets” value was 89; the “No. of cells, Class 0” value worked out at 316; the “No. of cells, Class 1” value amounted to 27; the “No. of cells, Class 2” value turned out to be 33. Besides, the “No. of cells, Class 3” value in test [5] was 29. Also, in test [9] (listed as Dox), the “DNA damaged cells% (mean ± SEM)” value is 26.17 ± 1.38% and 26.17 ± 1.38^a %. For the same compound, in test [9], the “No. of cells, Class 0” value is 299; the “No. of cells, Class 1” value stood at 38; the “No. of cells, Class 2” value is given as 32; the “No. of cells, Class 3” value amounted to 36.
